Molecular target: T1, Human Type I Steroid 5α-Reductase (Homo sapiens, UniProt P18405)
T1 construct: Scalp punch biopsies from graft recipient sites were obtained; from tissue; host or cells: human scalp punch biopsies (hair transplant graft recipient sites), homogenate, resuspended 100,000×g pellet
T1 sequence (P18405 1-259): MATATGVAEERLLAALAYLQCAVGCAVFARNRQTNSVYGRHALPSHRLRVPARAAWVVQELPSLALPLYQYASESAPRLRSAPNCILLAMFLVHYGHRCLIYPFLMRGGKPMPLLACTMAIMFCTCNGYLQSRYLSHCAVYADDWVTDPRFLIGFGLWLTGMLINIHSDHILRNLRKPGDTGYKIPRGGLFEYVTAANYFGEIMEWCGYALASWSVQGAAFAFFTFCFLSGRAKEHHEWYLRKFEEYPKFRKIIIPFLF
Experiment: Human 5α-Reductase Homogenate Assay (Type I, human scalp): conversion of [3H]-testosterone to 5α-reduced metabolites
Format: biochemical
Conditions: 0.3 μM test compound, compared to control reaction mixtures; 50 nM [3H]-testosterone, pH 7.5, 25°, 180 min
Text: Methodology of Human Type I Steroid 5α-Reductase Assays
Approximately 60-75 punches from one surgical procedure were used to generate an enzyme preparation. The subcutaneous tissue was cut away and discarded. The skin was frozen with liquid nitrogen and pulverized to powder. […] The homogenization procedure consisted of four 15 second pulses. Connective tissue was cleared from the probe with forceps between pulses. […] The pellet was resuspended by homogenization with a Dounce homogenizer using the same buffer solution. An aliquot was taken for protein determination by the Lowry method, Lowry, et al., Protein Measurement with the Folin Phenol Reagent, J. Biol. Chem., 193, 265-75 (1951). Aliquots of the enzyme preparation were stored at -80° until use.
The reaction was initiated by the addition of 0.5 mg of Type I 5α-reductase. The reaction mixture was incubated at 25° for 180 min, and terminated by the addition of 1 mL ice-cold stopping solution. […] The samples were prepared for high performance liquid chromatography by solid phase extraction. […] The reaction mixtures were then applied to the columns. The columns were subsequently washed with 5 mL of acetone:water (1:4), followed by 0.3 mL of methanol. The samples were then eluted with 3 mL of methanol and collected in 20 mL scintillation vials. […] The column temperature was maintained at 35° and the flow rate was 1.5 mL/min.

Compared with `CN1C(=O)CC[C@]2(C)c3ccc(Sc4nc5c(ccc6ccccc65)s4)cc3CC[C@@H]12` [Example 163, (+)-(4aR)-(10bR)-4-methyl-8-(2-naphtho<1,2-d>-thiazolylthio)-10b-methyl-1,2,3,4,4a,5,6,10b-octahydrobenzo[f]-quinolin-3-one], `C[C@]12CCC(=O)N[C@@H]1CCc1cc(-c3cnc4ccccc4c3)ccc12` [Example 196, (+)-(4aR)-(10bR)-8-(3-quinolinyl)-10b-methyl-1,2,3,4,4a,5,6,10b-octahydrobenzo[f]quinolin-3-one] is lower in “percent inhibition of Type I 5AR” value: 80% for the first, 11% for the second.

Compared with `CN1C(=O)CC[C@]2(C)c3ccc(-c4ccc(-c5ccc(NC(=O)C(C)(C)C)s5)cc4)cc3CC[C@@H]12` [Example 222, (+)-(4aR)-(10bR)-4-methyl-8-(4-[(2-t-butylcarbonylamino]-5-thienyl]phenyl)-10b-methyl-1,2,3,4,4a,5,6,10b-octahydrobenzo[f]quinolin-3-one], `CN1C(=O)CC[C@]2(C)c3ccc(C=Cc4ccccc4)cc3CC[C@@H]12` [Example 285, (4aR)-(10bR)-4,10b-dimethyl-8-(2-phenylethenyl)-1,2,3,4,4a,5,6,10b-octahydrobenzo[f]quinolin-3-one] is higher in “percent inhibition of Type I 5AR” value: 86% for the first, 93% for the second.

For “(+)-(4aR)-(10bR)-4-methyl-8-benzyloxycarbonyl-10b-methyl-1,2,3,4,4a,5,6,10b-octahydrobenzo[f]quinolin-3-one [Example 144]”, the “percent inhibition of Type I 5AR” value was 90%.
